Consider nine compounds from US10004701B2, “Methods and compositions for treating infection” (UNIVERSITY OF ROCHESTER, priority 2012, dated 2018).

What all share (test): AK assay 384-well format, Prestwick library screening
The subject of assay [1] is E. faecium. Format: cell-based, Enterococcus faecium. The following applies: for fold induction at 50 µM: Enterococcus faecium, 3 h.
Assay [2] has as its system K. pneumoniae. Type of assay: cell-based, Klebsiella pneumoniae. The following applies: for fold induction at 50 µM: Klebsiella pneumoniae, 3 h.
Assay [3] concerns E. coli. Type of assay: cell-based, Escherichia coli. The following applies: for fold induction at 50 µM: Escherichia coli, 3 h.
The subject of assay [4] is E. cloacae. Format: cell-based, Enterobacter cloacae. The following applies: for fold induction at 50 µM: Enterobacter cloacae, 3 h.
Assay [5] relates to S. aureus strain USA300-0114. Format: cell-based, Staphylococcus aureus. The following applies: for fold induction at 50 µM: Staphylococcus aureus, USA300, 3 h.
Assay [6] has as its system A. baumannii strain 98-37-09. Type of assay: cell-based, Acinetobacter baumannii. The following applies: for fold induction at 50 µM: Acinetobacter baumannii, 983709, 3 h.
The test system of assay [7] is P. aeruginosa. Type of assay: cell-based, Pseudomonas aeruginosa. The following applies: for fold induction at 50 µM: Pseudomonas aeruginosa, 3 h.
[8] abbreviates: 50 μM final drug concentration, planktonic, […].
[9] abbreviates: 50 μM final drug concentration, planktonic, cutoff for positive-scoring molecules 3-fold increase.
[10] abbreviates: 50 μM final drug concentration, cutoff for positive-scoring molecules 3-fold increase.

Where a name gives a salt, the structure may show the parent alone. Read-outs that look alike come from different tables or passages of the source.

Take `CCCCC(CC)CN1CN(CC(CC)CCCC)CC(C)(N)C1` (stereo not drawn) [Hexetidine]: the fold induction at 50 µM in assay [1] (50 μM final drug concentration, planktonic, cutoff for positive 3-fold increase, read-out: AK-based Prestwick Library Screening Results, E. faecium (fold increase in extracellular AK activity)) was determined as 1.1; in assay [2] (50 μM final drug concentration, planktonic, cutoff for positive 3-fold increase, read-out: AK-based Prestwick Library Screening Results, K. pneumoniae (fold increase in extracellular AK activity)) it was 1.4; in assay [3] (50 μM final drug concentration, planktonic, cutoff for positive 3-fold increase, read-out: AK-based Prestwick Library Screening Results, E. coli (fold increase in extracellular AK activity)), 1.5; in assay [4] (50 μM final drug concentration, planktonic, cutoff for positive 3-fold increase, read-out: AK-based Prestwick Library Screening Results, E. cloacae (fold increase in extracellular AK activity)), 1.6; in assay [5] (50 μM final drug concentration, planktonic, cutoff for positive 3-fold increase, read-out: AK-based Prestwick Library Screening Results, S. aureus (fold increase in extracellular AK activity)) it was 1.2; in assay [6] (50 μM final drug concentration, planktonic, cutoff for positive 3-fold increase, read-out: AK-based Prestwick Library Screening Results, A. baumannii (fold increase in extracellular AK activity)) it was 3. For the same compound, the fold induction at 50 µM in assay [7] (50 μM final drug concentration, planktonic, cutoff for positive 3-fold increase, read-out: AK-based Prestwick Library Screening Results, P. aeruginosa (fold increase in extracellular AK activity)) was 1.1.
`C[C@@H]1O[C@@H](O[C@H]2C[C@@H](O)[C@]3(CO)[C@H]4[C@H](O)C[C@]5(C)[C@@H](C6=CC(=O)OC6)CC[C@]5(O)[C@@H]4CC[C@]3(O)C2)[C@H](O)[C@H](O)[C@H]1O.O.O.O.O.O.O.O.O` [Strophantine octahydrate]: the “AK-based Prestwick Library Screening Results, E. faecium (fold increase in extracellular AK activity)” value in assay [1] (setting [8]) is 1.0. Moreover, the “AK-based Prestwick Library Screening Results, K. pneumoniae (fold increase in extracellular AK activity)” value in assay [2] (setting [8]) is recorded as 0.9. The “AK-based Prestwick Library Screening Results, E. coli (fold increase in extracellular AK activity)” value in assay [3] (setting [8]) is reported as 1.2. Further, in assay [4] (setting [8]), the “AK-based Prestwick Library Screening Results, E. cloacae (fold increase in extracellular AK activity)” value is 1.7. Also, the “AK-based Prestwick Library Screening Results, S. aureus (fold increase in extracellular AK activity)” value in assay [5] (setting [8]) is reported as 1.1. Also, the “AK-based Prestwick Library Screening Results, A. baumannii (fold increase in extracellular AK activity)” value in assay [6] (setting [8]) is given as 1.2. The “AK-based Prestwick Library Screening Results, P. aeruginosa (fold increase in extracellular AK activity)” value in assay [7] (setting [8]) is reported as 1.1.
Consider `O=C1NCN(c2ccccc2)C12CCN(CCCC(c1ccc(F)cc1)c1ccc(F)cc1)CC2` [Fluspirilen], for which the “AK-based Prestwick Library Screening Results, E. faecium (fold increase in extracellular AK activity)” value in assay [1] (setting [9]) stood at 1.3. Further, in assay [2] (setting [9]), the “AK-based Prestwick Library Screening Results, K. pneumoniae (fold increase in extracellular AK activity)” value turned out to be 1.1. Besides, in assay [3] (setting [9]), the “AK-based Prestwick Library Screening Results, E. coli (fold increase in extracellular AK activity)” value is given as 1.3. Moreover, in assay [4] (setting [9]), the “AK-based Prestwick Library Screening Results, E. cloacae (fold increase in extracellular AK activity)” value was 1.0. In assay [5] (setting [9]), the “AK-based Prestwick Library Screening Results, S. aureus (fold increase in extracellular AK activity)” value is recorded as 1.4. The “AK-based Prestwick Library Screening Results, A. baumannii (fold increase in extracellular AK activity)” value in assay [6] (setting [9]) turned out to be 6.6. Moreover, in assay [7] (setting [9]), the “AK-based Prestwick Library Screening Results, P. aeruginosa (fold increase in extracellular AK activity)” value was 0.8.
On to `COC(=O)[C@H]1[C@H]2C[C@H]3c4[nH]c5ccccc5c4CCN3C[C@@H]2CC[C@@H]1O.Cl` [Corynanthine hydrochloride], for which the “AK-based Prestwick Library Screening Results, E. faecium (increase in extracellular AK activity)” value in assay [1] (planktonic E. faecium, 50 μM final drug concentration, cutoff for positive-scoring molecules 3-fold increase) amounted to 1.0. In addition, the “AK-based Prestwick Library Screening Results, K. pneumoniae (increase in extracellular AK activity)” value in assay [2] (planktonic K. pneumoniae, 50 μM final drug concentration, cutoff for positive-scoring molecules 3-fold increase) was 0.6. Moreover, the “AK-based Prestwick Library Screening Results, E. coli (increase in extracellular AK activity)” value in assay [3] (planktonic E. coli, 50 μM final drug concentration, cutoff for positive-scoring molecules 3-fold increase) came to 0.7. Further, the “AK-based Prestwick Library Screening Results, E. cloacae (increase in extracellular AK activity)” value in assay [4] (planktonic E. cloacae, 50 μM final drug concentration, cutoff for positive-scoring molecules 3-fold increase) is 0.8. Also, the “AK-based Prestwick Library Screening Results, S. aureus (increase in extracellular AK activity)” value in assay [5] (planktonic S. aureus, 50 μM final drug concentration, cutoff for positive-scoring molecules 3-fold increase) stood at 0.7. Also, in assay [6] (planktonic A. baumannii, 50 μM final drug concentration, cutoff for positive-scoring molecules 3-fold increase), the “AK-based Prestwick Library Screening Results, A. baumannii (increase in extracellular AK activity)” value came to 0.6. Also, the “AK-based Prestwick Library Screening Results, P. aeruginosa (increase in extracellular AK activity)” value in assay [7] (planktonic P. aeruginosa, 50 μM final drug concentration, cutoff for positive-scoring molecules 3-fold increase) amounted to 0.7.
For `CCOC(=O)[C@H](CCc1ccccc1)N[C@@H](C)C(=O)N1CCC[C@H]1C(=O)O` [Enalapril maleate], the fold induction at 50 µM came out at 1.1 in assay [1] (planktonic E. faecium, 50 μM final drug concentration, 384-well, […], read-out: AK-based Prestwick Library Screening Results: E. faecium (increase in extracellular AK activity)); 1.2 in assay [2] (planktonic K. pneumoniae, 50 μM final drug concentration, 384-well, […], read-out: AK-based Prestwick Library Screening Results: K. pneumoniae (increase in extracellular AK activity)); 1.2 in assay [3] (planktonic E. coli, 50 μM final drug concentration, 384-well, […], read-out: AK-based Prestwick Library Screening Results: E. coli (increase in extracellular AK activity)); 1.3 in assay [4] (planktonic E. cloacae, 50 μM final drug concentration, 384-well, […], read-out: AK-based Prestwick Library Screening Results: E. cloacae (increase in extracellular AK activity)); 1.3 in assay [5] (planktonic S. aureus, 50 μM final drug concentration, 384-well, […], read-out: AK-based Prestwick Library Screening Results: S. aureus (increase in extracellular AK activity)); 1.3 in assay [6] (planktonic A. baumannii, 50 μM final drug concentration, 384-well, […], read-out: AK-based Prestwick Library Screening Results: A. baumannii (increase in extracellular AK activity)). Also, the fold induction at 50 µM in assay [7] (planktonic P. aeruginosa, 50 μM final drug concentration, 384-well, […], read-out: AK-based Prestwick Library Screening Results: P. aeruginosa (increase in extracellular AK activity)) amounted to 1.2.
In the case of `C[C@H]1NC(=O)NC1=O` [Methylhydantoin-5-(D)], the “AK-based Prestwick Library Screening Results, E. faecium (fold increase in extracellular AK activity)” value in assay [1] (setting [10]) was 1.0. Moreover, the “AK-based Prestwick Library Screening Results, K. pneumoniae (fold increase in extracellular AK activity)” value in assay [2] (setting [10]) was 1.1. Besides, the “AK-based Prestwick Library Screening Results, E. coli (fold increase in extracellular AK activity)” value in assay [3] (50 μM final drug concentration, […]) was 1.2. In addition, the “AK-based Prestwick Library Screening Results, E. cloacae (fold increase in extracellular AK activity)” value in assay [4] (setting [10]) was found to be 1.5. In assay [5] (setting [10]), the “AK-based Prestwick Library Screening Results, S. aureus (fold increase in extracellular AK activity)” value was found to be 1.2. In assay [6] (setting [10]), the “AK-based Prestwick Library Screening Results, A. baumannii (fold increase in extracellular AK activity)” value is listed as 1.3. The “AK-based Prestwick Library Screening Results, P. aeruginosa (fold increase in extracellular AK activity)” value in assay [7] (setting [10]) was 1.2.
`CC(C)[N+](C)(CCC(C(N)=O)(c1ccccc1)c1ccccc1)C(C)C` [Isopropamide iodide]: the fold induction at 50 µM in assay [1] (50 μM final drug concentration, cutoff for positive-scoring molecules 3-fold increase, read-out: AK-based Prestwick Library Screening Results, E. faecium (fold increase in extracellular AK activity)) was determined as 1.1; in assay [2] (50 μM final drug concentration, cutoff for positive-scoring molecules 3-fold increase, read-out: AK-based Prestwick Library Screening Results, K. pneumoniae (fold increase in extracellular AK activity)), 1.1; in assay [3] (50 μM final drug concentration, cutoff for positive-scoring molecules 3-fold increase, read-out: AK-based Prestwick Library Screening Results, E. coli (fold increase in extracellular AK activity)) it was 1.3; in assay [4] (50 μM final drug concentration, cutoff for positive-scoring molecules 3-fold increase, read-out: AK-based Prestwick Library Screening Results, E. cloacae (fold increase in extracellular AK activity)), 1.5; in assay [5] (50 μM final drug concentration, cutoff for positive-scoring molecules 3-fold increase, read-out: AK-based Prestwick Library Screening Results, S. aureus (fold increase in extracellular AK activity)) it was 1.2; in assay [6] (50 μM final drug concentration, cutoff for positive-scoring molecules 3-fold increase, read-out: AK-based Prestwick Library Screening Results, A. baumannii (fold increase in extracellular AK activity)), 1. For the same compound, the fold induction at 50 µM in assay [7] (50 μM final drug concentration, cutoff for positive-scoring molecules 3-fold increase, read-out: AK-based Prestwick Library Screening Results, P. aeruginosa (fold increase in extracellular AK activity)) amounted to 1.2.
Consider `C[C@]12CC[C@@H](O)C[C@H]1CC[C@@H]1[C@@H]2CC[C@]2(C)C(=O)CC[C@@H]12`, for which the “AK-based Prestwick Library Screening Results, E. faecium (fold increase in extracellular AK activity)” value in assay [1] stood at 1.0. Besides, in assay [2], the “AK-based Prestwick Library Screening Results, K. pneumoniae (fold increase in extracellular AK activity)” value stood at 0.9. The “AK-based Prestwick Library Screening Results, E. coli (fold increase in extracellular AK activity)” value in assay [3] was determined as 1.2. The “AK-based Prestwick Library Screening Results, E. cloacae (fold increase in extracellular AK activity)” value in assay [4] came to 1.9. For the same compound, the “AK-based Prestwick Library Screening Results, S. aureus (fold increase in extracellular AK activity)” value in assay [5] was 1.0. Besides, the “AK-based Prestwick Library Screening Results, A. baumannii (fold increase in extracellular AK activity)” value in assay [6] is reported as 0.9. In assay [7], the “AK-based Prestwick Library Screening Results, P. aeruginosa (fold increase in extracellular AK activity)” value was found to be 1.1.
In the case of `CCC(=O)O[C@@](Cc1ccccc1)(c1ccccc1)[C@@H](C)CN(C)C` [Levopropoxyphene napsylate], the fold induction at 50 µM in assay [1] (50 μM final drug concentration, […], read-out: AK-based Prestwick Library Screening Results, E. faecium (fold increase in extracellular AK activity)) worked out at 1; in assay [2] (50 μM final drug concentration, […], read-out: AK-based Prestwick Library Screening Results, K. pneumoniae (fold increase in extracellular AK activity)) it was 0.6; in assay [3] (50 μM final drug concentration, […], read-out: AK-based Prestwick Library Screening Results, E. coli (fold increase in extracellular AK activity)) it was 0.6; in assay [4] (50 μM final drug concentration, […], read-out: AK-based Prestwick Library Screening Results, E. cloacae (fold increase in extracellular AK activity)), 0.7; in assay [5] (50 μM final drug concentration, […], read-out: AK-based Prestwick Library Screening Results, S. aureus (fold increase in extracellular AK activity)), 0.6; in assay [6] (50 μM final drug concentration, […], read-out: AK-based Prestwick Library Screening Results, A. baumannii (fold increase in extracellular AK activity)), 0.7. The fold induction at 50 µM in assay [7] (50 μM final drug concentration, […], read-out: AK-based Prestwick Library Screening Results, P. aeruginosa (fold increase in extracellular AK activity)) worked out at 0.7.
